Where “and” joins values, the source holds several entries; their conditions need not be identical. Equal values may be shown once.
Experiment: xn = mol fraction of the nth substance listed

COCCO + CCO
viscosity [mPa·s], 101 kPa
Conditions	x1 = 0.06304	x1 = 0.133	x1 = 0.206	x1 = 0.2876	x1 = 0.3771	x1 = 0.476	x1 = 0.5856	x1 = 0.7078	x1 = 0.8449
298.15 K	1.051	1.024	1.019	1.031	1.053	1.084	1.173	1.286	1.415
308.15 K	0.8342	0.8445	0.8576	0.8812	0.9063	0.9409	1.003	1.07	1.105
318.15 K	0.7622	0.7704	0.773	0.8002	0.847	0.868	0.911	0.923	0.9633

C1CC[C@H]2CCCC[C@H]2C1 + CC1CCCCC1
viscosity [mPa·s], 100 kPa
Conditions	x2 = 0.125	x2 = 0.25	x2 = 0.375	x2 = 0.5	x2 = 0.625	x2 = 0.75	x2 = 0.875
293.15 K	2.749	2.287	1.867	1.541	1.3	1.076	0.894
303.15 K	2.241	1.912	1.567	1.312	1.096	0.935	0.776
313.15 K	1.858	1.6	1.326	1.123	0.944	0.824	0.674
323.15 K	1.578	1.367	1.168	0.986	0.837	0.701	0.604

CCN(C=O)CC + O
298.16 K, 101 kPa
Conditions	viscosity [mPa·s]
x2 = 0.1029	1.23
x2 = 0.247	1.47
x2 = 0.3904	1.84
x2 = 0.5426	2.38
x2 = 0.6681	2.83
x2 = 0.7344	3
x2 = 0.7646	3.01
x2 = 0.8236	2.9
x2 = 0.8813	2.53

CC(O)=S + c1ccccc1
298.1 K, 101 kPa
Conditions	viscosity [mPa·s]
x1 = 0.2	0.584
x1 = 0.4	0.584
x1 = 0.5	0.589
x1 = 0.6	0.599
x1 = 0.8	0.631

CCN(C=O)CC + NC=O
viscosity [mPa·s]
Conditions	298.15 K	308.15 K	323.15 K
101 kPa, x1 = 0.1	3.55	2.91	2.27
101 kPa, x1 = 0.2	3.62	2.97	2.29
101 kPa, x1 = 0.3	3.51	2.86	2.15
101 kPa, x1 = 0.4	3.25	2.62	1.91
101 kPa, x1 = 0.5	2.93	2.34	1.64
101 kPa, x1 = 0.6	2.52	2.01	1.43
101 kPa, x1 = 0.7	2.24	1.71	1.22
101 kPa, x1 = 0.85	1.61	1.34	1.01
101.33 kPa, x2 = 0.07537	1.391	–	0.937
101.33 kPa, x2 = 0.1513	1.585	–	1.034
101.33 kPa, x2 = 0.2164	1.736	–	1.103
101.33 kPa, x2 = 0.2957	2.021	–	1.26
101.33 kPa, x2 = 0.3723	2.312	–	1.37
101.33 kPa, x2 = 0.4452	2.614	–	1.503
101.33 kPa, x2 = 0.4964	2.776	–	1.603
101.33 kPa, x2 = 0.5665	3.138	–	1.757
101.33 kPa, x2 = 0.6362	3.333	–	1.859
101.33 kPa, x2 = 0.7013	3.547	–	1.942
101.33 kPa, x2 = 0.7404	3.678	–	1.99
101.33 kPa, x2 = 0.785	3.722	–	2.046
101.33 kPa, x2 = 0.8471	3.663	–	2.045
101.33 kPa, x2 = 0.93	3.516	–	1.978

C1CCNCC1 + O
viscosity [mPa·s], 101 kPa
Conditions	x1 = 0.05	x1 = 0.1	x1 = 0.2	x1 = 0.3	x1 = 0.35	x1 = 0.4	x1 = 0.6	x1 = 0.8
298.15 K	1.9	3.06	4.76	5.4	5.42	5.13	3.38	2.05
323.15 K	0.887	1.26	1.77	1.94	1.94	1.86	1.38	0.993

C1CNCCN1 + O
Conditions	viscosity
293.15 K, 100 kPa, x1 = 0.02273	1.608 mPa·s
298.15 K, 101 kPa, x1 = 0.0292	1.877 mPa·s
303.15 K, 101 kPa, x1 = 0.00369	0.86 mPa·s
303.15 K, 101 kPa, x1 = 0.005	0.84 mPa·s
303.15 K, 101 kPa, x1 = 0.01	0.93 mPa·s
303.15 K, 101 kPa, x1 = 0.0113	0.97 mPa·s
303.15 K, 101 kPa, x1 = 0.02	1.13 mPa·s
303.15 K, 101 kPa, x1 = 0.02358	1.28 mPa·s
303.15 K, 101 kPa, x1 = 0.025	1.28 mPa·s
303.15 K, 101 kPa, x1 = 0.03	1.41 mPa·s
303.15 K, 101 kPa, x1 = 0.035	1.57 mPa·s
303.15 K, 101 kPa, x1 = 0.04	1.76 mPa·s
303.15 K, 101 kPa, x1 = 0.045	1.91 mPa·s
313.15 K, 100 kPa, x1 = 0.02273	0.9677 mPa·s and 0.988 mPa·s
313.15 K, 101 kPa, x1 = 0.005	0.67 mPa·s
313.15 K, 101 kPa, x1 = 0.01	0.74 mPa·s
313.15 K, 101 kPa, x1 = 0.0113	0.76 mPa·s
313.15 K, 101 kPa, x1 = 0.015	0.81 mPa·s
313.15 K, 101 kPa, x1 = 0.02	0.89 mPa·s
313.15 K, 101 kPa, x1 = 0.02358	1.02 mPa·s
313.15 K, 101 kPa, x1 = 0.025	0.99 mPa·s
313.15 K, 101 kPa, x1 = 0.0292	1.307 mPa·s
313.15 K, 101 kPa, x1 = 0.03	1.08 mPa·s
313.15 K, 101 kPa, x1 = 0.04	1.33 mPa·s
313.15 K, 101 kPa, x1 = 0.045	1.43 mPa·s
318.15 K, 101 kPa, x1 = 0.00369	0.61 mPa·s
318.15 K, 101 kPa, x1 = 0.0113	0.69 mPa·s
318.15 K, 101 kPa, x1 = 0.02358	0.92 mPa·s
323.15 K, 101 kPa, x1 = 0.005	0.51 mPa·s
323.15 K, 101 kPa, x1 = 0.01	0.59 mPa·s
323.15 K, 101 kPa, x1 = 0.0113	0.62 mPa·s
323.15 K, 101 kPa, x1 = 0.02	0.71 mPa·s
323.15 K, 101 kPa, x1 = 0.02358	0.81 mPa·s
323.15 K, 101 kPa, x1 = 0.025	0.8 mPa·s
323.15 K, 101 kPa, x1 = 0.03	0.86 mPa·s
323.15 K, 101 kPa, x1 = 0.035	0.95 mPa·s
323.15 K, 101 kPa, x1 = 0.04	1.04 mPa·s
323.15 K, 101 kPa, x1 = 0.045	1.11 mPa·s

CCOC(=O)C(=O)OCC + ClC(Cl)(Cl)Cl
303.15 K, 101 kPa
Conditions	viscosity [mPa·s]
x1 = 0.0736	0.915
x1 = 0.1516	0.997
x1 = 0.2345	1.074
x1 = 0.3227	1.155
x1 = 0.4171	1.24
x1 = 0.5177	1.323
x1 = 0.6259	1.402
x1 = 0.7414	1.482
x1 = 0.8658	1.574

From the CheMixHub viscosity set
